The test system of one assay is AHAS. As to the kind of experiment: AHAS enzyme assay: AHAS activity remaining in the presence of herbicides or amino acids. Type of assay: biochemical, Nicotiana tabacum. The settings on record: for % AHAS activity remaining with Ile / % AHAS activity remaining with Leu / % AHAS activity remaining with Val: 10mM. The protocol: The weight of the material to be assayed is determined either by weighing the pellet obtained by refrigerated centrifugation of a cell suspension or by weighing callus, leaf or root tissue placed into liquid nitrogen and macerated to a fine powder. One volume (in ml) of cold homogenization buffer equal to the weight (in g) of the cell suspension pellet or equal to two times the weight (in g) of tissue is added and the mixture is passed through a French pressure cell at 15,000 psi or is ground with sand in a mortar and pestle. All subsequent steps are carried out keeping the material cold (about 4°C). The cells are disrupted at 16,000 psi, collecting the cell exudate into a container on ice. The exudate is centrifuged 5 min at 10,000 rpm to clear the cell debris. The volume of the supernate is measured and enzyme grade ammonium sulfate added to 25 % saturation (144 mg (NH₄)₂SO₄ per ml supernate). The mixture is stirred on ice for 15 min, then centrifuged for 5 min at 10,000 rpm. The pellet is discarded and the supernate adjusted to 50 % saturation with ammonium sulfate (158 mg (NH₄)₂SO₄ per ml supernate). After stirring on ice for 15 min, the pellet is collected by centrifugation at 10,000 rpm for 5 min. The obtained pellet is dissolved in 1-2 ml of column buffer. The extract is desalted by application to a Sephadex G50 column equilibrated with column buffer. The sample is eluted with column buffer, collecting approximately 2 ml of sample for each ml of sample applied to the column.
Homogenization buffer and column buffer are chosen depending on the source of the AHAS to be assayed: Tobacco homogenization buffer consists of: 50 mM NaH₂PO₄ buffer pH 7.0, 0.5 mM EDTA pH 7.0, 0.5 mM MgCl₂, 1 mM sodium pyruvate pH 7.0, 10 µM FAD, 1 mM PMSF, 10 % glycerol. Maize homogenization buffer consists of: 50 mM Tris pH 7.5, 1 mM EDTA pH 7.5, 5 mM MgCl₂, 20 mM sodium pyruvate pH 7.0, 10 µM FAD, 1 mM PMSF, 1 mM DTT, 1 mM TPP, 10 % glycerol. Tobacco column buffer consists of: 50 mM NaH₂PO₄ buffer pH 7.0, 0.1 mM EDTA, 0.5 mM MgCl₂, 10 µM FAD, 1 mM PMSF, 10 % glycerol. Maize column buffer consists of: 50 mM Tris pH 7.5, 5 mM MgCl₂, 10 µM FAD, 0.1 mM EDTA, 1 mM PMSF, 1 mM DTT, 10 % glycerol.
5-50 µl of an extract prepared according to EXAMPLE 30 are dissolved in a total volume of 0.5 ml of reaction mixture (see below). The mixture is incubated for 30 min at 37°C. The reaction is stopped by the addition of 50 µl of 6 N H₂SO₄. The mixture is incubated for 15 min at 60°C, then treated with 625 µl of a-naphthol reagent (500 µl 5 % a-naphthol in 2.5 M NaOH and 125 µl 25 mg/ml creatine) and incubated another 15 min at 60°C. If a precipitate has formed, this is spun out, and the absorbance measured at 520 nm. The amount of acetoin formed is calculated from a standard curve developed using 0.4 µg to 10 µg acetoin. The specific activity is expressed as pKat acetoin per mg protein.
1-20 µl of a sample are placed in a ELISA plate well with a total volume of 0.15 ml of reaction mixture. The mixture is reacted for 30 min at 37°C. The reaction is stopped by the addition of 50 µl of 2.4 M H₂SO₄ containing 1 % creatine. The mixture is incubated for 30 min at 60°C. Any precipitate present is separated by centri fugation. 150 µl of the assay mixture are transferred to a new ELISA plate, treated with 100 µl 10 % a-naphthol in 5M NaOH and incubated another 20 min at 60°C. The absorbance is measured at 520 nm, and the specific activity expressed as under a).
Ten point inhibition curves are generated by determining AHAS activity in the presence of sulfonylurea, imidazolinone and triazolopyrimidine herbicides. The sulfonylurea and triazolopyrimidine herbicides are included in the reaction mixture to give a range of final concentrations of the inhibitors between 1 nM and 10,000 nM. The imidazolinone herbicides are included in the concentration ranges of 10 nM to 100,000 nM. […]

In assay [1] the test system is transgenic tobacco plants. As to the kind of experiment: Leaf disc herbicide tolerance test of transgenic tobacco plants. In kind it is cell-based, cv. Havana 38. The settings on record: after 40 days. The protocol:
After 3-6 weeks of growth in light, the cultured tissue pieces are evaluated for their ability to form green shoots in the presence of the inhibitor. In analogy, sections from stems, petioles, roots, cotyledons, and hypocotyls are used. The herbicide tolerance of the transgenic plants obtained according to EXAMPLE 23 and 24 using CGA1402 are essentially determined as described in EXAMPLE 11a. Leaf discs are cut from different transgenic plants, weighed and then placed, lower side up, onto solidified MSBN medium containing 0, 10, 30, 100 and 300 ppb of SU872. The culture plates are incubated in the light at 25-28°C. […] Discs are inspected visually and evaluated for shoot and/or callus formation.

The values that follow come from patent EP0360750A2, “Novel herbicide tolerant plants” (CIBA-GEIGY AG, priority 1988, dated 1990).

Molecules are shown by their SMILES.

As to `CC[C@H](C)[C@H](N)C(=O)O` [Ile, isoleucine], the “% AHAS activity remaining with Ile” value was 80% in the assay with AHAS (strain S3 (Table 2)); 66% with AHAS (strain Su 6 (Table 2)); 95% with AHAS (strain Su 8 (Table 2)); 102% with AHAS (strain Su 10 (Table 2)); 58% in the assay with AHAS (strain Su 20 (Table 2)); 100% in the assay with AHAS (strain Su 25 (Table 2)). The “% AHAS activity remaining with Ile” value in the assay with AHAS (strain Su 27 (Table 2)) was 92%; in the assay with AHAS (strain Su 41 (Table 2)), 97%.

Turning to `COCCOc1ccccc1S(=O)(=O)NC(=O)Nc1nc(OC)nc(OC)n1` [SU464, 2-(2-methoxyethoxy)-N-[(4,6-dimethoxy-1,3,5-triazin-2-yl)-aminocarbonyl]benzenesulfonamide], the “% AHAS activity remaining with SU464” value was 44% in the assay on AHAS (0.21µM, strain S3 (Table 2)); 36% in the assay with AHAS (0.21µM, strain Su 6 (Table 2)); 38% in the assay on AHAS (0.21µM, strain Su 8 (Table 2)); 37% with AHAS (0.21µM, strain Su 10 (Table 2)); 32% in the assay on AHAS (0.21µM, strain Su 20 (Table 2)); 32% in the assay on AHAS (0.21µM, strain Su 25 (Table 2)). The “% AHAS activity remaining with SU464” value amounted to 39% with AHAS (0.21µM, strain Su 27 (Table 2)); 32% in the assay on AHAS (0.21µM, strain Su 41 (Table 2)); 24% in the assay on AHAS (10.6µM, strain S3 (Table 2)); 15% with AHAS (10.6µM, strain Su 6 (Table 2)); 16% with AHAS (10.6µM, strain Su 8 (Table 2)); 20% in the assay with AHAS (10.6µM, strain Su 10 (Table 2)). The “% AHAS activity remaining with SU464” value is given as 21% in the assay with AHAS (10.6µM, strain Su 20 (Table 2)); 18% in the assay with AHAS (10.6µM, strain Su 25 (Table 2)); 19% in the assay with AHAS (10.6µM, strain Su 27 (Table 2)); 21% in the assay with AHAS (10.6µM, strain Su 41 (Table 2)).

Regarding `CC(C)C[C@H](N)C(=O)O` [Leu, leucine], the “% AHAS activity remaining with Leu” value with AHAS (strain S3 (Table 2)) is reported as 38%; in the assay on AHAS (strain Su 6 (Table 2)), 58%; in the assay on AHAS (strain Su 8 (Table 2)) it was 61%; in the assay with AHAS (strain Su 10 (Table 2)) it was 62%; in the assay with AHAS (strain Su 20 (Table 2)), 53%; with AHAS (strain Su 25 (Table 2)), 84%. The entries for the “% AHAS activity remaining with Leu” value in the assay on AHAS (strain Su 27 (Table 2)) and in the assay with AHAS (strain Su 41 (Table 2)) were 81% and 71%, respectively.

In the case of `CC(C)[C@H](N)C(=O)O` [Val, valine], the “% AHAS activity remaining with Val” value was 69% with AHAS (strain S3 (Table 2)); 82% with AHAS (strain Su 6 (Table 2)); 81% in the assay with AHAS (strain Su 8 (Table 2)); 48% in the assay with AHAS (strain Su 10 (Table 2)); 75% in the assay on AHAS (strain Su 20 (Table 2)); 86% in the assay with AHAS (strain Su 25 (Table 2)). For the same compound, the “% AHAS activity remaining with Val” value in the assay with AHAS (strain Su 27 (Table 2)) was 91%; with AHAS (strain Su 41 (Table 2)), 83%.

On to `COC(=O)c1ccccc1S(=O)(=O)NC(=O)Nc1nc(OC(F)F)cc(OC(F)F)n1` [SU872, 2-methoxycarbonyl-N-[(4,6-bis{difluoromethoxy}-pyrimidin-2-yl)-aminocarbonyl]benzenesulfonamide], for which the “% AHAS activity remaining with SU872” value in the assay on AHAS (0.21µM, strain S3 (Table 2)) is given as 17%; in the assay with AHAS (0.21µM, strain Su 6 (Table 2)) it was 27%; in the assay on AHAS (0.21µM, strain Su 8 (Table 2)), 32%; with AHAS (0.21µM, strain Su 10 (Table 2)), 39%; in the assay with AHAS (0.21µM, strain Su 20 (Table 2)), 18%; in the assay with AHAS (0.21µM, strain Su 25 (Table 2)), 20%. For the same compound, the “% AHAS activity remaining with SU872” value with AHAS (0.21µM, strain Su 27 (Table 2)) worked out at 36%; in the assay on AHAS (0.21µM, strain Su 41 (Table 2)), 15%; in the assay with AHAS (10.6µM, strain S3 (Table 2)), 14%; with AHAS (10.6µM, strain Su 6 (Table 2)), 12%; with AHAS (10.6µM, strain Su 8 (Table 2)), 12%; with AHAS (10.6µM, strain Su 10 (Table 2)), 15%. Besides, the “% AHAS activity remaining with SU872” value in the assay with AHAS (10.6µM, strain Su 20 (Table 2)) came out at 17%; in the assay with AHAS (10.6µM, strain Su 25 (Table 2)) it was 18%; in the assay with AHAS (10.6µM, strain Su 27 (Table 2)), 20%; with AHAS (10.6µM, strain Su 41 (Table 2)), 12%. Moreover, the “Mean mg fresh weight per disc ± standard deviation (n=7)” value in assay [1] (10 ppb SU872, plant A3 (transformed with CGA1402, 35S/wild-type Arabidopsis AHAS)) was determined as 2151 ± 995 mg; in assay [1] (10 ppb SU872, plant A4 (transformed with CGA1402, 35S/wild-type Arabidopsis AHAS)), 2847 ± 548 mg; in assay [1] (10 ppb SU872, plant D2 (genomic clone of AHAS from chlorsulfuron tolerant mutant GH-50), discs bleached, not enlarged, no callus) it was 70 ± 14 mg; in assay [1] (10 ppb SU872, plant type E (wild-type tobacco, cv. Havana 38), discs bleached, not enlarged, no callus), 87 ± 19 mg; in assay [1] (30 ppb SU872, plant A3) it was 180 ± 98 mg; in assay [1] (30 ppb SU872, plant A4), 333 ± 174 mg. For the same compound, the “Mean mg fresh weight per disc ± standard deviation (n=7)” value in assay [1] (100 ppb SU872, plant A3) is 33 ± 29 mg; in assay [1] (100 ppb SU872, plant A4) it was 19 ± 15 mg.
